In the CheMixHub viscosity set:

Experiment: xn = mol fraction of the nth substance listed

C=COC(C)=O + Cc1cccc(C)c1
viscosity [mPa·s], 101 kPa
Conditions | x1 = 0.1482 | x1 = 0.2434 | x1 = 0.3456 | x1 = 0.4518 | x1 = 0.5741 | x1 = 0.6832 | x1 = 0.7598 | x1 = 0.8817 | x1 = 0.9602
303.15 K | 0.52 | 0.502 | 0.483 | 0.465 | 0.445 | 0.428 | 0.414 | 0.401 | 0.392
313.15 K | 0.469 | 0.452 | 0.434 | 0.416 | 0.399 | 0.383 | 0.37 | 0.358 | 0.35

CC(C)c1ccccc1 + Cc1ccccc1
Conditions | viscosity [mPa·s]
293.15 K, 101.33 kPa, x2 = 0.2846 | 0.727
293.15 K, 101.33 kPa, x2 = 0.5253 | 0.676
293.15 K, 101.33 kPa, x2 = 0.6998 | 0.644
293.15 K, 101.33 kPa, x2 = 0.856 | 0.612
298.15 K, 101.3 kPa, x2 = 0.1169 | 0.6671
298.15 K, 101.3 kPa, x2 = 0.2596 | 0.643
298.15 K, 101.3 kPa, x2 = 0.3951 | 0.6203
298.15 K, 101.3 kPa, x2 = 0.508 | 0.6016
298.15 K, 101.3 kPa, x2 = 0.605 | 0.5854
298.15 K, 101.3 kPa, x2 = 0.7505 | 0.5615
298.15 K, 101.3 kPa, x2 = 0.8459 | 0.5459
298.15 K, 101.3 kPa, x2 = 0.9474 | 0.5288
303.15 K, 101.33 kPa, x2 = 0.2846 | 0.638
303.15 K, 101.33 kPa, x2 = 0.5253 | 0.597
303.15 K, 101.33 kPa, x2 = 0.6998 | 0.57
303.15 K, 101.33 kPa, x2 = 0.856 | 0.544
313.15 K, 101.33 kPa, x2 = 0.2846 | 0.569
313.15 K, 101.33 kPa, x2 = 0.5253 | 0.533
313.15 K, 101.33 kPa, x2 = 0.6998 | 0.509
313.15 K, 101.33 kPa, x2 = 0.856 | 0.485
323.15 K, 101.33 kPa, x2 = 0.2846 | 0.507
323.15 K, 101.33 kPa, x2 = 0.5253 | 0.477
323.15 K, 101.33 kPa, x2 = 0.6998 | 0.458
323.15 K, 101.33 kPa, x2 = 0.856 | 0.437

[O-][Cl+3]([O-])([O-])O + CC(=O)O
viscosity [mPa·s], 101 kPa
Conditions | x1 = 0.2029 | x1 = 0.3254 | x1 = 0.4484 | x1 = 0.5117
293.15 K | 0.2653 | 0.6193 | 0.4081 | 0.2388
308.15 K | 0.1146 | 0.2603 | 0.1883 | 0.1226
323.15 K | – | 0.1268 | – | –

Clc1ccccc1Cl + COc1ccccc1
viscosity [mPa·s], 101 kPa
Conditions | x2 = 0.0977 | x2 = 0.1979 | x2 = 0.3012 | x2 = 0.403 | x2 = 0.4955 | x2 = 0.5995 | x2 = 0.6967 | x2 = 0.7951 | x2 = 0.8931
298.15 K | 1.201 | 1.172 | 1.142 | 1.118 | 1.097 | 1.081 | 1.056 | 1.037 | 1.022
303.15 K | 1.121 | 1.094 | 1.067 | 1.042 | 1.019 | 1 | 0.9808 | 0.9631 | 0.9486
308.15 K | 1.046 | 1.02 | 0.9938 | 0.9716 | 0.949 | 0.9288 | 0.9098 | 0.8944 | 0.881
313.15 K | 0.9762 | 0.9514 | 0.9268 | 0.9045 | 0.8869 | 0.8664 | 0.8479 | 0.832 | 0.8178

Oc1ccccc1Cl + COCCO
viscosity [mPa·s], 101 kPa
Conditions | x1 = 0.0797 | x1 = 0.163 | x1 = 0.2503 | x1 = 0.3418 | x1 = 0.4379 | x1 = 0.5388 | x1 = 0.6451 | x1 = 0.757 | x1 = 0.8752
303.15 K | 1.925 | 2.342 | 2.78 | 3.204 | 3.56 | 3.811 | 3.884 | 3.735 | 3.376
308.15 K | 1.81 | 2.126 | 2.456 | 2.776 | 3.04 | 3.212 | 3.268 | 3.166 | 2.898
313.15 K | 1.479 | 1.762 | 2.055 | 2.335 | 2.586 | 2.765 | 2.842 | 2.785 | 2.593
318.15 K | 1.34 | 1.572 | 1.805 | 2.03 | 2.227 | 2.37 | 2.445 | 2.419 | 2.282

CCCN + CO
298.15 K, 100 kPa
Conditions | viscosity [mPa·s]
x2 = 0.0987 | 0.4013
x2 = 0.1995 | 0.4374
x2 = 0.2868 | 0.4756
x2 = 0.397 | 0.5323
x2 = 0.4985 | 0.5872
x2 = 0.5475 | 0.6104
x2 = 0.6249 | 0.6414
x2 = 0.6977 | 0.658
x2 = 0.8 | 0.652
x2 = 0.8982 | 0.6144
x2 = 0.9499 | 0.5827

Oc1ccccc1Cl + CCC(C)=O
298.15 K, 101 kPa
Conditions | viscosity [mPa·s]
x1 = 0.1005 | 0.517
x1 = 0.1961 | 0.7
x1 = 0.3003 | 0.913
x1 = 0.3994 | 1.322
x1 = 0.501 | 1.744
x1 = 0.6001 | 2.277
x1 = 0.6991 | 2.736
x1 = 0.8006 | 3.091
x1 = 0.8991 | 3.315

CCCCOC(C)=O + C1CCCCC1
viscosity [mPa·s], 101 kPa
Conditions | 298.15 K | 308.15 K
x1 = 0.0561 | 0.854 | 0.723
x1 = 0.156 | 0.801 | 0.676
x1 = 0.2818 | 0.749 | 0.631
x1 = 0.4867 | 0.693 | 0.585
x1 = 0.4963 | 0.691 | 0.584
x1 = 0.5327 | 0.685 | 0.579
x1 = 0.5738 | 0.678 | 0.575
x1 = 0.6816 | 0.667 | 0.568
x1 = 0.7552 | 0.663 | 0.568
x1 = 0.8686 | 0.663 | 0.575
x1 = 0.9568 | 0.669 | 0.586

OCCc1ccccc1 + Cc1ccccc1N
viscosity [mPa·s], 100 kPa
Conditions | x2 = 0.0857 | x2 = 0.1652 | x2 = 0.2724 | x2 = 0.3731 | x2 = 0.4711 | x2 = 0.6147 | x2 = 0.7123 | x2 = 0.8105 | x2 = 0.8904
303.15 K | 8.539 | 8.086 | 7.473 | 6.895 | 6.332 | 5.503 | 4.937 | 4.366 | 3.9
308.15 K | 7.247 | 6.868 | 6.356 | 5.874 | 5.402 | 4.708 | 4.234 | 3.755 | 3.364
313.15 K | 6.014 | 5.714 | 5.307 | 4.923 | 4.548 | 3.994 | 3.616 | 3.234 | 2.921
318.15 K | 4.751 | 4.532 | 4.234 | 3.952 | 3.676 | 3.269 | 2.991 | 2.708 | 2.476

Oc1ccccc1Cl + CCCCN(CCCC)CCCC
298.16 K, 101 kPa
Conditions | viscosity [mPa·s]
x1 = 0.5022 | 21.91
x1 = 0.5499 | 34.61
x1 = 0.6012 | 82.36
x1 = 0.6516 | 192.6
x1 = 0.7025 | 410.1
x1 = 0.7266 | 475.5
x1 = 0.7554 | 427.4
x1 = 0.7826 | 289.1
x1 = 0.8001 | 191.3
x1 = 0.812 | 134.4
x1 = 0.8523 | 63.53
x1 = 0.8708 | 39.93
x1 = 0.8974 | 19.56
x1 = 0.9113 | 9.963
x1 = 0.9432 | 4.507
x1 = 0.9687 | 2.537
x2 = 0.004631 | 2.323
